Patent US5614548A, “Quaternary amine containing ether or ester lipid derivatives and therapeutic compositions” (priority 1994, dated 1997)

How the values were obtained:
Protein Kinase C = Protein Kinase C activity (32P incorporation into histone); format: biochemical, human (HL-60 cells)
Protocol: PKC was prepared and assayed as described previously. See Daniel, L. W. et al., Biochem. Biophys. Res. Comm. 151, 291 (1988). In brief, HL-60 cells were grown in 75 milliliter flasks, harvested and washed with ice-cold normal saline. After centrifugation (600×g, 5 minutes, 4° Centigrade), the cell pellet was resuspended (20 mM Tris-HCl, pH 7.5, 2 mM EDTA, 10 mM EGTA, 50 mM 2-mercaptoethanol, 2 mM phenylmethylsulfonyl fluoride) and sonicated for 20 s with a stepped microprobe sonciator. Unbroken cells were removed by centrifugation as above and the supernatant centrifuged (65,000×g, 90 minutes, 4° Centigrade). The supernatant from this step (cytosol) was then fractionated on a 1×8 cm DEAE-Sephacel column after addition to sucrose to a final concentration of 10%. After equilibrating the column (20 mM Tris, pH 7.5, 0.2 mM EDTA, 0.2 mM EGTA, 50 mM 2-mercaptoethanol, 10% sucrose), the sample was loaded and unbound material was washed through with 40 milliliters of the equilibrating buffer. The PKC was eluted by a gradient from 0-0.5M NaCl in the buffer described above. Fractions of 1 milliliter were collected at 25 milliliters per hour and 0.05 milliliter aliquots assayed for PKC activity as described below. The fractions with the highest activity were pooled and used in further experiments.
The assays were done at pH 7.5 in a total volume of 0.25 milliliter and all tubes contained 25 mM Tris, 10 mM MgCl2, 40 μg per milliliter histone, 10 μM ATP (including 1 μCi of [gamma-^32 P]-ATP), 0.1 mM CaCl2, 20 μg per milliliter phosphatidylserine, 0.05 milliliter of the PKC preparation and 2.5 μM of oleoylacetylglycerol (OAG). Enzymatic activity was determined as the incorporation of ^32 P from [gamma-^32 P]-ATP) into histone in the presence of Ca^2+, phosphatidylserine, and OAG. Reactions were initiated by the addition of the enzyme preparation and halted after 20 minutes at 30° Centigrade by the addition of 0.05 milliliters of bovine serum albumin (10 milligrams per milliliter) and 1 milliliter 25% ice-cold trichloroacetic acid. The tubes were kept on ice and then filtered in a millipore vacuum box using Millipore® HA filters and washed with 25% trichloroacetic acid. The radioactivity bound to the filters was determined by scintillation spectrometry in 5 milliliters Budget Solve®. […] The analog to be tested was dissolved in ethanol, and added directly into the reaction mixture before the addition of PKC. As a control, 0.1% ethanol was included in the samples with the enzyme but with no inhibitor.

HIV-1 [1] = test: HIV-1 plaque assay, inhibitor added 60 minutes after infection; format: cell-based, human immunodeficiency virus type 1 (HIV-1); conditions: for anti-HIV-1 activity: HIV-1 plaque formation, in words; for IC50: Human immunodeficiency virus 1, CEM-SS monolayers, compound from sixty minutes after infection, N = 4, read-out: Inhibitory Concentration50 HIV-1 Plaque Formation
From the text: (§1) Dextran sulfate was used as a positive control. […] Plaques were counted at five days after infection.
(§2) By way of further background, in our assay HIV-1 syncytial plaques are seen as large, multicellular foci (10 to 25 nuclei/syncytium) that appear either brown and granular or clear. Since the number of HIV-1 syncytial plaques correlates with reverse transcriptase (RT) and p24 core antigen activity in the HIV-1 infected cell overlay fluids, the syncytial plaque assay can be used to quantify the amount of infectious virus. Reverse transcriptase activity was assayed according to a described procedure (B. J. Poeisz et al., Proc. Natl. Acad. Sci. (U.S.A.) […], 7415 (1980)). The activity of p24 core antigen induced by HIV-1 infection of CEM-SS cells was measured spectrophotometrically using the commercial Abbott EIA.
(§3) Compound E inhibited HIV-1 plaque count 43%, 83%, and 91% at concentrations of 0.2, 0.4, and 2.0 μM, respectively, compared to untreated controls. […] In other experiments addition of 0.2, 0.4 and 2.0 μM Compound E starting sixty minutes after HIV-1 infection inhibited HIV-1 plaque formation 28%, 59% and 97% respectively, compared to untreated controls.
(§4) Next investigated were the correlations of EL analog structure with anti-HIV-l and anti-cell growth. The experimental method used six serial two-fold dilutions of EL that spanned concentrations above and below a concentration that inhibits HIV-1 plaque count, cell growth (^3 H-TdR uptake into cell DNA) or in vitro PKC activity by 50% (inhibitory concentration50 =IC50) compared to an appropriate mock treated control. Table 7 summarizes data on IC50 of phosphorus and non-phosphorus compounds for HIV-1 plaque formation and cell growth.
^1 Serial 2fold dilutions of compounds are used. HIV1 plaque formatio
is measured in CEMSS cell monolayers by having compound present starting
sixty minutes after virus infection. IC50 values for HIV1 plaque
formation are x ± one SD., N = 4. CEMSS cell growth is measured in […]

CEM-SS cells = test: CEM-SS cell growth (3H-TdR uptake); format: cell-based; conditions: Homo sapiens, 48 hours, N = 3, read-out: Inhibitory Concentration50 CEM-SS Cell Growth
From the text: as §4
formation are x ± one SD., N = 4. CEMSS cell growth is measured in
suspension cultures by treating the cells with compound for 48 hours at
37° C. and then adding 1 μCi of ^3 HTdR (S.A. = 20 Ci/mmole
for 8 hours at 37° C. to measure DNA synthesis. IC50 values
for CEMSS growth are x of a representative experiment, N = 3.

[2] = test system: HL60 human leukemia cell line; test: HL60 cell growth inhibition (trypan blue, 48 h); format: cell-based; conditions: Homo sapiens, HL-60, 48 h, HL60, 48 hours; read-out: ID50 (the source's name)
Protocol: A number of the compounds disclosed herein have been tested against the HL60 human leukemia cell line to assess their cytotoxic potential. These analogs were investigated in parallel with ET-18-OMe which was used as the reference compound. The methodologies used in this investigation were the same as described in A. Noseda, M. Berens, C. Piantadosi, and E. J. Modest, Lipids 22, 878-883, 1987. In brief, HL60 cells at a concentration of […] were incubated in wells with one milliliter medium with the experimental drug in parallel with the same concentration of cells with ET-18-OMe (standard) or EtOH (control). After 48 hours of incubation the cells were counted using the trypan blue dye exclusion technique to determine the effect of the drug on cell growth. The experimental drug and ET-18-OMe were tested at the same concentrations, e.g., 10, 5, 2.5 and 1.25 μM.

HIV-1 [3] = test: HIV-1 plaque assay, inhibitor added 30 minutes before infection; format: cell-based, human immunodeficiency virus type 1 (HIV-1)
From the text: as §1, §2, §3

SMILES	Percent Protein Kinase C Activity Retained (Protein Kinase C; 1.25 μM) [%]	Percent Protein Kinase C Activity Retained (Protein Kinase C; 2.5 μM) [%]	Percent Protein Kinase C Activity Retained (Protein Kinase C; 5.0 μM) [%]	Percent Protein Kinase C Activity Retained (Protein Kinase C; 10.0 μM) [%]	Percent Protein Kinase C Activity Retained (Protein Kinase C; 20.0 μM) [%]	Percent Protein Kinase C Activity Retained (Protein Kinase C; 40.0 μM) [%]	anti-HIV-1 activity (HIV-1 [1])	IC50 (HIV-1 [1]) [µM]	IC50 (CEM-SS cells) [µM]	IC50 [2] [µM]	inhibition at 0.2 µM (HIV-1 [3]; Human immunodeficiency virus 1, 0.2 μM, 30 minutes before infection, Table 6) [%]	inhibition at 0.4 µM (HIV-1 [3]; Human immunodeficiency virus 1, 0.4 μM, 30 minutes before infection, Table 6) [%]	inhibition at 2 µM (HIV-1 [3]; Human immunodeficiency virus 1, 2.0 μM, 30 minutes before infection, Table 6) [%]	inhibition at 0.2 µM (HIV-1 [3]; Human immunodeficiency virus 1, HIV-1 plaque formation, 0.2 μM, Table 5) [%]	inhibition at 0.4 µM (HIV-1 [3]; Human immunodeficiency virus 1, HIV-1 plaque formation, 0.4 μM, Table 5, read-out: Inhibition (%)) [%]	inhibition at 2 µM (HIV-1 [3]; Human immunodeficiency virus 1, HIV-1 plaque formation, 2 μM, Table 5) [%]	antiviral activity (HIV-1 plaque formation) (HIV-1 [3]; added before or after infection, in words)	inhibition at 0.2 µM (HIV-1 [1]; Human immunodeficiency virus 1, 1 h, 0.2 μM, 60 minutes after infection) [%]	inhibition at 0.4 µM (HIV-1 [1]; Human immunodeficiency virus 1, 1 h, 0.4 μM, 60 minutes after infection) [%]	inhibition at 2 µM (HIV-1 [1]; Human immunodeficiency virus 1, 1 h, 2.0 μM, 60 minutes after infection, read-out: Inhibition (%)) [%]
CCCCCCCCCCCCCCCCSCC(C[N+](C)(C)CCO)OCC (stereo not shown) [B]	92	84	70	70	66	47	significant anti-HIV-1 activity	0.63 ± 0.18	5.4											
CCCCCCCCCCCCCCCCSCC(C[N+](C)(C)CCO)OC.[Br-] (racemic) [CJM 57, (±)-3-hexadecylthio-2-methoxy-N,N-dimethyl-N-β-hydroxyethyl-1-propyl ammonium bromide]							significant anti-HIV-1 activity	0.37 ± 0.01	3.2	4.6	30	38	85	43	83	91	antiviral activity	28	59	97
CCCCCCCCCCCCCCCCOCC(O)(CO)CCCCCCCC (stereo not shown) [J]							did not inhibit HIV-1 plaque formation	> 10	> 20											
CCCCCCCCCCCCCCCCCCSCC(C[N+](C)(C)CCCO)OC (stereo not shown) [I]	75	56	49	39	27	23	significant anti-HIV-1 activity	0.52 ± 0.33	3.4											
CCCCCCCCCCCCCCCC(=O)OC[C@H](COP(=O)([O-])OCC[N+](C)(C)C)OC(=O)CCCCCCCCCCCCCCC [dipalmitoyl-phosphatidylcholine, reference compound]								> 1360	> 681											
